Data from publication PMC10937199 (ESMO Open, 2024).

Legend:
[1] = 50-mg film-coated hot melt extrudate tablets; estimated; cited from earlier work
advanced solid tumors = assay: Best overall response per RECIST version 1.1, Part FE; type: in vivo, human
[2] = healthy volunteers; cited from earlier work
[3] = system: patients with advanced solid tumors; assay: Safety; type: in vivo, human; details: Part B

SMILES: COc1ccc([C@@H](O)c2cc(-c3ncnc4cc(N5CCOCC5)ccc34)c(F)cc2Cl)nn1 [Peposertib]
- Increase in bioavailability versus capsules [1]: 75%
- Best overall response of stable disease (SD) or non-CR/non-PD (advanced solid tumors; all dose levels): 33.3%
- Patients with a PR (advanced solid tumors; all patients, response at 200 mg b.i.d.): one of nine
- Food effect [2]: only a mild food effect
- IRR ([3]; 100 mg q.d., all grade): 2 (66.7) n (%)
- Immune-related AE ([3]; 100 mg q.d., all grade): 0 n (%)
- Serious TEAE ([3]; 100 mg q.d., all grade): 2 (66.7) n (%)
- Serious TEAE, peposertib related ([3]; 100 mg q.d., all grade): 0 n (%)
- Serious TEAE, radiotherapy related ([3]; 100 mg q.d., all grade): 0 n (%)
- Serious TEAE, treatment related ([3]; 100 mg q.d., all grade): 1 (33.3) n (%)
- TEAE ([3]; 100 mg q.d., all grade): 3 (100.0) n (%)
- TEAE, peposertib related ([3]; 100 mg q.d., all grade): 2 (66.7) n (%)
- TEAE, radiotherapy related ([3]; 100 mg q.d., all grade): 1 (33.3) n (%)
- TEAE, treatment related ([3]; 100 mg q.d., all grade): 3 (100.0) n (%)
- TEAEs leading to death ([3]; 100 mg q.d., all grade): 0 n (%)
- Treatment-related AE leading to death ([3]; 100 mg q.d., all grade): 0 n (%)
- IRR ([3]; 100 mg q.d., grade ≥3): 0 n (%)
- Immune-related AE ([3]; 100 mg q.d., grade ≥3): 0 n (%)
- Serious TEAE ([3]; 100 mg q.d., grade ≥3): 2 (66.7) n (%)
- Serious TEAE, peposertib related ([3]; 100 mg q.d., grade ≥3): 0 n (%)
- Serious TEAE, radiotherapy related ([3]; 100 mg q.d., grade ≥3): 0 n (%)
- Serious TEAE, treatment related ([3]; 100 mg q.d., grade ≥3): 1 (33.3) n (%)
- TEAE ([3]; 100 mg q.d., grade ≥3): 2 (66.7) n (%)
- TEAE, peposertib related ([3]; 100 mg q.d., grade ≥3): 0 n (%)
- TEAE, radiotherapy related ([3]; 100 mg q.d., grade ≥3): 0 n (%)
- TEAE, treatment related ([3]; 100 mg q.d., grade ≥3): 1 (33.3) n (%)
- TEAEs leading to death ([3]; 100 mg q.d., grade ≥3): 0 n (%)
- Treatment-related AE leading to death ([3]; 100 mg q.d., grade ≥3): 0 n (%)
- IRR ([3]; 150 mg q.d., all grade): 1 (33.3) n (%)
- Immune-related AE ([3]; 150 mg q.d., all grade): 0 n (%)
- Serious TEAE ([3]; 150 mg q.d., all grade): 1 (33.3) n (%)
- Serious TEAE, peposertib related ([3]; 150 mg q.d., all grade): 0 n (%)
- Serious TEAE, radiotherapy related ([3]; 150 mg q.d., all grade): 0 n (%)
- Serious TEAE, treatment related ([3]; 150 mg q.d., all grade): 1 (33.3) n (%)
- TEAE ([3]; 150 mg q.d., all grade): 3 (100.0) n (%)
- TEAE, peposertib related ([3]; 150 mg q.d., all grade): 1 (33.3) n (%)
- TEAE, radiotherapy related ([3]; 150 mg q.d., all grade): 1 (33.3) n (%)
- TEAE, treatment related ([3]; 150 mg q.d., all grade): 3 (100.0) n (%)
- TEAEs leading to death ([3]; 150 mg q.d., all grade): 0 n (%)
- Treatment-related AE leading to death ([3]; 150 mg q.d., all grade): 0 n (%)
- IRR ([3]; 150 mg q.d., grade ≥3): 0 n (%)
- Immune-related AE ([3]; 150 mg q.d., grade ≥3): 0 n (%)
- Serious TEAE ([3]; 150 mg q.d., grade ≥3): 1 (33.3) n (%)
- Serious TEAE, peposertib related ([3]; 150 mg q.d., grade ≥3): 0 n (%)
- Serious TEAE, radiotherapy related ([3]; 150 mg q.d., grade ≥3): 0 n (%)
- Serious TEAE, treatment related ([3]; 150 mg q.d., grade ≥3): 1 (33.3) n (%)
- TEAE ([3]; 150 mg q.d., grade ≥3): 2 (66.7) n (%)
- TEAE, peposertib related ([3]; 150 mg q.d., grade ≥3): 1 (33.3) n (%)
- TEAE, radiotherapy related ([3]; 150 mg q.d., grade ≥3): 1 (33.3) n (%)
- TEAE, treatment related ([3]; 150 mg q.d., grade ≥3): 2 (66.7) n (%)
- TEAEs leading to death ([3]; 150 mg q.d., grade ≥3): 0 n (%)
- Treatment-related AE leading to death ([3]; 150 mg q.d., grade ≥3): 0 n (%)
- IRR ([3]; 200 mg q.d., all grade): 2 (50.0) n (%)
- Immune-related AE ([3]; 200 mg q.d., all grade): 1 (25.0) n (%)
- Serious TEAE ([3]; 200 mg q.d., all grade): 1 (25.0) n (%)
- Serious TEAE, peposertib related ([3]; 200 mg q.d., all grade): 0 n (%)
- Serious TEAE, radiotherapy related ([3]; 200 mg q.d., all grade): 0 n (%)
- Serious TEAE, treatment related ([3]; 200 mg q.d., all grade): 0 n (%)
- TEAE ([3]; 200 mg q.d., all grade): 4 (100.0) n (%)
- TEAE, peposertib related ([3]; 200 mg q.d., all grade): 2 (50.0) n (%)
- TEAE, radiotherapy related ([3]; 200 mg q.d., all grade): 3 (75.0) n (%)
- TEAE, treatment related ([3]; 200 mg q.d., all grade): 4 (100.0) n (%)
- TEAEs leading to death ([3]; 200 mg q.d., all grade): 0 n (%)
- Treatment-related AE leading to death ([3]; 200 mg q.d., all grade): 0 n (%)
- IRR ([3]; 200 mg q.d., grade ≥3): 0 n (%)
- Immune-related AE ([3]; 200 mg q.d., grade ≥3): 0 n (%)
- Serious TEAE ([3]; 200 mg q.d., grade ≥3): 1 (25.0) n (%)
- Serious TEAE, peposertib related ([3]; 200 mg q.d., grade ≥3): 0 n (%)
- Serious TEAE, radiotherapy related ([3]; 200 mg q.d., grade ≥3): 0 n (%)
- Serious TEAE, treatment related ([3]; 200 mg q.d., grade ≥3): 0 n (%)
- TEAE ([3]; 200 mg q.d., grade ≥3): 1 (25.0) n (%)
- TEAE, peposertib related ([3]; 200 mg q.d., grade ≥3): 0 n (%)
- TEAE, radiotherapy related ([3]; 200 mg q.d., grade ≥3): 0 n (%)
- TEAE, treatment related ([3]; 200 mg q.d., grade ≥3): 0 n (%)
- TEAEs leading to death ([3]; 200 mg q.d., grade ≥3): 0 n (%)
- Treatment-related AE leading to death ([3]; 200 mg q.d., grade ≥3): 0 n (%)
- Peposertib-related pneumonitis ([3]; 250 mg q.d.): 11.1%
- Serious TEAE: dehydration ([3]; 250 mg q.d.): 2/9
- IRR ([3]; 250 mg q.d., all grade): 3 (33.3) n (%)
- Immune-related AE ([3]; 250 mg q.d., all grade): 2 (22.2) n (%)
- Serious TEAE ([3]; 250 mg q.d., all grade): 6 (66.7) n (%)
- Serious TEAE, peposertib related ([3]; 250 mg q.d., all grade): 1 (11.1) n (%)
- Serious TEAE, radiotherapy related ([3]; 250 mg q.d., all grade): 1 (11.1) n (%)
- Serious TEAE, treatment related ([3]; 250 mg q.d., all grade): 2 (22.2) n (%)
- TEAE ([3]; 250 mg q.d., all grade): 9 (100.0) n (%)
- TEAE, peposertib related ([3]; 250 mg q.d., all grade): 5 (55.6) n (%)
- TEAE, radiotherapy related ([3]; 250 mg q.d., all grade): 5 (55.6) n (%)
- TEAE, treatment related ([3]; 250 mg q.d., all grade): 8 (88.9) n (%)
- TEAEs leading to death ([3]; 250 mg q.d., all grade): 0 n (%)
- Treatment-related AE leading to death ([3]; 250 mg q.d., all grade): 0 n (%)
- IRR ([3]; 250 mg q.d., grade ≥3): 1 (11.1) n (%)
- Immune-related AE ([3]; 250 mg q.d., grade ≥3): 2 (22.2) n (%)
- Serious TEAE ([3]; 250 mg q.d., grade ≥3): 6 (66.7) n (%)
- Serious TEAE, peposertib related ([3]; 250 mg q.d., grade ≥3): 1 (11.1) n (%)
- Serious TEAE, radiotherapy related ([3]; 250 mg q.d., grade ≥3): 1 (11.1) n (%)
- Serious TEAE, treatment related ([3]; 250 mg q.d., grade ≥3): 2 (22.2) n (%)
- TEAE ([3]; 250 mg q.d., grade ≥3): 7 (77.8) n (%)
- TEAE, peposertib related ([3]; 250 mg q.d., grade ≥3): 1 (11.1) n (%)
- TEAE, radiotherapy related ([3]; 250 mg q.d., grade ≥3): 1 (11.1) n (%)
- TEAE, treatment related ([3]; 250 mg q.d., grade ≥3): 3 (33.3) n (%)
- TEAEs leading to death ([3]; 250 mg q.d., grade ≥3): 0 n (%)
- Treatment-related AE leading to death ([3]; 250 mg q.d., grade ≥3): 0 n (%)
- Discontinuation of all study treatments due to AEs ([3]; all dose levels): 6 (31.6%)
- Peposertib-related TEAE: nausea ([3]; all dose levels): 5 (26.3%)
- Peposertib-related TEAE: vomiting ([3]; all dose levels): 3 (15.8%)
